One data set deals with osteosarcoma. Particulars: at 18 weeks of treatment, PMID: 33580363; cited from earlier work.
Data set [1] deals with osteosarcoma and Ewing sarcoma. Particulars: PMID: 20068084; cited from earlier work.
In the next data set the test system is 143B+GFP-Luc (OS) cells. The data set can be described thus: PBC xenograft mouse model, OS. The format is in vivo, BALB/c nude mice. How it is done: (§1) Mice. The University of Sheffield Animal Welfare and Ethics Committee approved the animal experiments. Experiments were performed under licence in accordance with the UK Home Office guidelines and under the Animals (Scientific Procedures) Act 1986. Six- to seven-week-old female BALB/c nude mice (Charles River Laboratories) were acclimatised for one week prior to in vivo study. Mice were housed with a 12 h light-dark cycle at 22° C. and had free access to 2018 Teklad global 18% protein rodent diet containing 1.01% calcium (Harlan) and water. Mice were anesthetised by isoflurane inhalation before implantation with 2.5×10^5 143B+GFP-Luc (OS) cells or 5×10^5 TC71+GFP-Luc (ES) cells in 20 μl PBS onto the tibial surface. Mice were matched by weight and initial IVIS signal and then randomly divided into groups (n=8 mice/group). CADD522 treatment commenced the day after tumours became visible. Mice received either vehicle control (PBS and DMSO) or CADD522 (25 mg/kg) by IP injection five times per week. Tumours were measured by callipers throughout the study twice per week blinded. Two perpendicular measurements were taken and volume calculated by the formula V=0.523×L×(S)^2 where L and S refer to the largest and smallest measurement. Mice were treated until the palpable tumour reached the permissible 12 mm diameter limit. At the end of the procedure ex vivo imaging of mouse internal organs was performed to detect metastasis. Prior to killing, mice were injected subcutaneously with 150 mg/kg XenoLight D-Luciferin substrate (Perkin Elmer) that was left to disperse for a minimum of 5 m. Dissected organs were then imaged using the IVIS Lumina II. Mice legs and lungs were dissected and fixed in 10% formalin for further analysis.
Micro-CT. Fixed tibiae were scanned using a SkyScan 1172 desktop micro-CT machine (Bruker) at 8 um resolution with the X-ray source operating at 50 kV, 200 uA and using a 0.5 mm aluminium filter. Images were captured every 0.7°. Scanned images were reconstructed using Skyscan NRecon software v1.6.9 (Bruker). The region of interest (ROI) for the total bone volume was selected to include both the tibia and fibula and was determined at the top of the bone as soon as the tibia enters the image to the lower point where the tibia and fibula meet.
Histology. Bones were fixed in neutral buffered formalin for 48 h after which they were transferred to 70% ethanol. Bones were then decalcified in 10% EDTA, embedded in paraffin and 5 μm sections produced. Sections were de-waxed in xylene, rehydrated through graded alcohols and stained in haematoxylin (VWR) and eosin. The sections were dehydrated through graded alcohols and coverslips were mounted in DPX and imaged using Olympus BX51 microscope (Olympus Life Sciences) and Pannoramic 250 Flash III slide scanner (3[…]).
Statistics. For statistical tests p=<0.05 was considered as statistically significant. Proliferation data is reported for each experimental repeat (n=3). Data was tested for normality by D'Agostino Pearson Omnibus test and analysed in GraphPad Prism v9 with p=<0.05 regarded as significant. A one-way ANOVA was used to identify any differences in proliferation across the concentration range tested compared to the untreated control. A post-hoc Dunnett's multiple comparison was then used to determine which concentration impacted proliferation compared to the untreated control. […]

The test system of the next data set is 143B (human OS) cells. The data set can be described thus: Proliferation assay (WST-1), OS cells. The data set is classed as cell-based. Particulars: 100 μM CADD522, 72 h, WST-1, relative to control. How it is done: (§2) Cell lines. 143B (human OS) and TC71 (human ES) cells were obtained from ATCC. Cells were authenticated by STR profiling and were cultured in DMEM/F-12 (Thermo Fisher Scientific) or IMDM (Thermo Fisher Scientific) containing 1% (v/v) insulin transferrin selenium, 10% (v/v) FBS and 1% (v/v) penicillin/streptomycin. Medium was refreshed every other day and cells were maintained at 37° C. in 5% CO2. For the animal experiments 143B and TC71 cells were modified by transfecting with the GFP-luciferase tagged LVP02 lentivirus (AMSBIO). Adding the luciferase tag had no effect on cell phenotype.
(§3) Proliferation assays. 1×10^3 cells in 100 μL of medium were seeded per well into 96-well plates. PBS was added to outer wells to prevent evaporation. All plates were incubated for 24 h at 37° C. in 5% CO2. 100 nM, 1 μM, 10 μM and 100 μM CADD522 were added from a stock concentration of 10 mM in DMSO and incubated for 72 h before measuring cell viability/proliferation using the WST-1 assay kit (Abcam) following manufacturer's instructions. Data was presented as relative to the control (appearing as −11 on x-axis), which is set to 100% viability. Experiments were performed in quadruplicates in three independent experiments.
(§4) Statistics. […] Data was tested for normality by D'Agostino Pearson Omnibus test and analysed in GraphPad Prism v9 with p=<0.05 regarded as significant. […]
On the technique in general: Tetrazolium dyes change colour on reduction, which living cells bring about.

The subject of the next data set is TC71+GFP-Luc (ES) cells. The data set can be described thus: PBC xenograft mouse model, ES. The data set is classed as in vivo, BALB/c nude mice. The procedure:
as §1, with “Mice legs and lungs were dissected and fixed in 10% formalin for further analysis.” left out
Micro-CT. […] The region of interest (ROI) for the total bone volume was selected to include both the tibia and fibula and was determined at the top of the bone as soon as the tibia enters the image to the lower point where the tibia and fibula meet. […]
as §4

The test system of a further data set is TC71 (human ES) cells. The data set can be described thus: Proliferation assay (WST-1), ES cells. The format is cell-based. Particulars: 100 μM CADD522, 72 h, WST-1, relative to control. The procedure: as §2, §3, §4
Data set [2] in a line: Observed toxicity in treated PBC model mice. The data set is classed as in vivo. As to conditions: 25 mg/kg over the study period. The procedure: as §1, with “At the end of the procedure ex vivo imaging of mouse internal organs was performed to detect metastasis. Prior to killing, mice were injected subcutaneously with 150 mg/kg XenoLight D-Luciferin substrate (Perkin Elmer) that was left to disperse for a minimum of 5 m. Dissected organs were then imaged using the IVIS Lumina II. Mice legs and lungs were dissected and fixed in 10% formalin for further analysis.” left out

Where [3] appears, read: 25 mg/kg IP, compared to controls.

Entries after “also recorded” stand apart in the source; their conditions may differ.

In the case of pembrolizumab, the clinical benefit entry in the data set with osteosarcoma is “no patients had clinical benefit”.
Consider `C/C(=C\c1csc(C)n1)[C@@H]1C[C@@H]2O[C@]2(C)CCC[C@H](C)[C@H](O)[C@@H](C)C(=O)C(C)(C)[C@@H](O)CC(=O)N1` [ixabepilone], for which the clinical response entry in data set [1] is given as “no partial or complete responses were observed”.
Take `O=C(O)C1C2C=CC(C2)C1C(=O)Nc1ccc(Cl)c(Cl)c1` (stereo not shown) [CADD522, 3-(N-(3,4-dichlorophenyl)carbamoyl)-5-norbornene-2-carboxylic acid]: the “metastasis-free survival, OS mice” value in the data set on 143B+GFP-Luc (OS) cells (25 mg/kg IP five times per week vs control, p=0.0091) was “significantly increased metastasis-free survival”. The “overall survival, OS mice” value in the data set on 143B+GFP-Luc (OS) cells (25 mg/kg IP five times per week vs control, p=0.093) is recorded as “Half of OS mice receiving CADD522 treatment survived longer than the control group”. Also, the “OS tumour volume over time” value in the data set with 143B+GFP-Luc (OS) cells (25 mg/kg IP five times per week vs vehicle control, p=0.0072) is listed as “significantly reduced tumour volume”. Also, in the data set with 143B+GFP-Luc (OS) cells (setting [3]), the “histology (H&E) of OS tumours at endpoint” value is “more densely packed, generally more vascularised and more organised (arranged in chords)”. Besides, the “bone volume difference, tumour bearing leg vs contralateral (CL) leg (micro-CT)” value in the data set with 143B+GFP-Luc (OS) cells (OS mice, 25 mg/kg IP, in control mice difference significant (p=0.02)) is “no longer statistically significant”. In addition, the OS cell viability/proliferation entry with 143B (human OS) cells is recorded as “cytotoxic effect; also recorded: significantly reduced cell proliferation”. Further, the “overall survival, ES mice” value in the data set on TC71+GFP-Luc (ES) cells (25 mg/kg IP five times per week vs control, p=0.043) was “Significantly increased overall survival”. Also, the “ES tumour volume over time” value in the data set with TC71+GFP-Luc (ES) cells (25 mg/kg IP five times per week vs vehicle control, p=0.0003) is reported as “significantly reduced tumour volume”. Moreover, the “histology (H&E) of ES tumours at endpoint” value in the data set with TC71+GFP-Luc (ES) cells (setting [3]) was “generally more vascularised”. Also, the ES cell viability/proliferation result in the data set with TC71 (human ES) cells is recorded as “cytotoxic; also recorded: showed cell proliferation differences”. The “observed toxicity in the animals” value in data set [2] is “no observed toxicity”.

The values above are taken from patent US20250312300A1, “BRIDGED BICYCLIC CARBOXYLIC ACIDS FOR TREATING OSTEOSARCOMA AND EWING SARCOMA” (UEA ENTERPRISES LIMITED, priority 2022, published 2025).
